Data reported in patent US8772005B2, “Laccases, compositions and methods of use” (Danisco US Inc., priority 2006, dated 2014).

Tested on: Thielavia sp. laccase
Assay: Bleaching of solubilized indigo by laccase/mediator combinations, 96-well microtitre plate, absorbance at 600 nm
Type: biochemical
Procedure: An assay for the bleaching of the solubilized indigo substrate by laccase/mediator combinations was performed in a 96-well microtitre plate as follows
A saturated solution of indigo in N-methylpyrrolidone (NMP) was prepared by stirring indigo (30 mg) in NMP (10 ml) at room temperature for 5 hours. The NMP solution was diluted 10-fold into an aqueous buffer solution resulting in a blue solution. For example, dilution into 50 mM sodium acetate buffer at pH 5, or 50 mM sodium phosphate buffer at pH 7. Solutions were shaken well immediately before use.
The assay for the bleaching of the solubilized indigo substrate was performed in a 96-well microtitre plate whereby each well received the soluble indigo solution in 50 mM sodium acetate buffer at pH 5 (180 uL), laccase (10 ppm enzyme) and mediator solution (from a 20 mM stock solution in methanol). The total volume of each well was adjusted to 200 uL with deionzed water. A control containing laccase only was run in duplicate. The plate was sealed and incubated at 50° C. for 2 hours at 800 rpm on a heated agitator (Thermomixer, Eppendorf). Following this period, the plates were unsealed and a solution of ascorbic acid (20 uL of a 10% aqueous solution) added to each well in order to reduce the oxidized forms of the mediators. The extent of indigo bleaching was then assessed by determining the absorbance for each well at 600 nm using a microtitre plate reader. The lower the absorbance reading, the greater the extent of indigo bleaching.
Laccases derived from Myceliophtora (Denilite® II, Novozymes, Bagsvaerd, Denmark), Thielavia (Ecostone LCC10, AB enzymes, Darmstadt, Germany) and Cerrena sp. were assessed for their ability to bleach solubilized indigo in conjunction with low molecular weight mediators at two pH values.

| Structure (SMILES) | effectiveness of mediator for indigo bleaching (in words) (mediator concentration 50 uM) | effectiveness of mediator for indigo bleaching (in words) (mediator concentration 500 uM) |
| --- | --- | --- |
| COc1cc(C(=O)O)cc(OC)c1O [Syringic acid, syringic acid] | bleached soluble indigo no more effectively than the control condition |  |
| CCn1c(=NN=c2sc3cc(S(=O)(=O)O)ccc3n2CC)sc2cc(S(=O)(=O)O)ccc21 [ABTS] | most effective mediator | most effective mediator |
